Paper PMC7572726 (Nature, 2020)

What was measured:
Assay in all cases: EMSA
Assay type in all cases: binding
Details in all cases: labelled compound (32P, ~1 uM), 20 uM protein; pH 7.5, 25 C
FdSTING = biological target: T1, FdSTING (Flavobacterium daejeonense, UniProt P0DUD9)
T1 sequence (P0DUD9 1-311): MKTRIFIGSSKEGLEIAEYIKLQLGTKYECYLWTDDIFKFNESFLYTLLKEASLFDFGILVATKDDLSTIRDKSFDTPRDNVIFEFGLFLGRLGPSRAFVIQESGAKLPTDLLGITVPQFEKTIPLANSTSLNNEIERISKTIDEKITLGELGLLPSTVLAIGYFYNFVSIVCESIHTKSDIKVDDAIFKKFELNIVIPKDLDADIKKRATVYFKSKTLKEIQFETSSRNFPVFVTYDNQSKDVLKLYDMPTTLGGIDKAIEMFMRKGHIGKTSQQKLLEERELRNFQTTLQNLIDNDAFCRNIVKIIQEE

AaSTING = AaSTING (Aggregatibacter actinomycetemcomitans, UniProt A0A5D0EMF2)
LbSTING = biological target: T2, LbSTING (Lachnospiraceae bacterium RUG226, UniProt P0DUE0)
T2 sequence (P0DUE0 1-316): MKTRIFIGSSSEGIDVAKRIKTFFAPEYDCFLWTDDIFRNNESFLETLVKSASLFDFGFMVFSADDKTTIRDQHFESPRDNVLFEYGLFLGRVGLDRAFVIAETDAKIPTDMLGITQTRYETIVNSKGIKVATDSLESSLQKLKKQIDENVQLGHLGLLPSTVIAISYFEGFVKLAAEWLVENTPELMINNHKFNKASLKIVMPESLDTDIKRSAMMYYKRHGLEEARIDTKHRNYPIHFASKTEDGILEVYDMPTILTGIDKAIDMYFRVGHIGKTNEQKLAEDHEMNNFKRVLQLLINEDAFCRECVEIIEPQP

NdSTING = biological target: T3, NdSTING (Niabella drilacis, UniProt A0A1G6LGU2)
T3 sequence (A0A1G6LGU2 1-312): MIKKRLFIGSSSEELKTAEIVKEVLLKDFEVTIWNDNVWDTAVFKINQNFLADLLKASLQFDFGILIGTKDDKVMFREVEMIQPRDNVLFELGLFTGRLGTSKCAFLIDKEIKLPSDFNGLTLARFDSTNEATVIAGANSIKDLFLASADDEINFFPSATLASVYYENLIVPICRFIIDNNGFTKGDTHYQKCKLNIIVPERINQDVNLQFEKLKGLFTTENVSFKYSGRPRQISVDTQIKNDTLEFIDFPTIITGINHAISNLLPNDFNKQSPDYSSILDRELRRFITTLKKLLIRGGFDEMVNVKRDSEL

Sequence of AaSTING (A0A5D0EMF2 whole entry): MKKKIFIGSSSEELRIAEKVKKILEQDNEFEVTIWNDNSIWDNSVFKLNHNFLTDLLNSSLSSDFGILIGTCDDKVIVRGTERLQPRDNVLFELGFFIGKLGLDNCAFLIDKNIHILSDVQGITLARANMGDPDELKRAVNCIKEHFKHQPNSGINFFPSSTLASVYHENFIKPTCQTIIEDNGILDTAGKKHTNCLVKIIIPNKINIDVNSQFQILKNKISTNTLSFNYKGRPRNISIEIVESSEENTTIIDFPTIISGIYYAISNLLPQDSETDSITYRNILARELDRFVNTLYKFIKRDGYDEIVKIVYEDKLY

Nc1nc2c(ncn2[C@@H]2O[C@@H]3COP(=O)(O)O[C@H]4[C@@H](O)[C@H](n5cnc6c(=O)[nH]c(N)nc65)O[C@@H]4COP(=O)(O)O[C@H]3[C@H]2O)c(=O)[nH]1 [c-di-GMP]
EMSA (FdSTING): diverse panel of bacterial STING homologues demonstrates conservation of c-di-GMP binding
EMSA (AaSTING): Bacterial STING receptors specifically recognize c-di-GMP
EMSA (LbSTING): Bacterial STING receptors specifically recognize c-di-GMP
EMSA (NdSTING): diverse panel of bacterial STING homologues demonstrates conservation of c-di-GMP binding
